In ChEMBL document CHEMBL5584238, “Psammaplin A analogues with modified disulfide bond targeting histone deacetylases: Synthesis and biological evaluation” (Eur J Med Chem, 2024) one finds inhibition, IC50 and Activity data, which are given here for two compounds.

As a reminder, the IC50 is the midpoint of a concentration-inhibition curve.

The structures appear in SMILES notation. The source made the active and inactive calls. No cut-off for these calls is given here.

In data set [1] the target is T1, Protein deacetylase HDAC6 (Homo sapiens) (UniProt Q9UBN7).
T1 sequence (whole entry): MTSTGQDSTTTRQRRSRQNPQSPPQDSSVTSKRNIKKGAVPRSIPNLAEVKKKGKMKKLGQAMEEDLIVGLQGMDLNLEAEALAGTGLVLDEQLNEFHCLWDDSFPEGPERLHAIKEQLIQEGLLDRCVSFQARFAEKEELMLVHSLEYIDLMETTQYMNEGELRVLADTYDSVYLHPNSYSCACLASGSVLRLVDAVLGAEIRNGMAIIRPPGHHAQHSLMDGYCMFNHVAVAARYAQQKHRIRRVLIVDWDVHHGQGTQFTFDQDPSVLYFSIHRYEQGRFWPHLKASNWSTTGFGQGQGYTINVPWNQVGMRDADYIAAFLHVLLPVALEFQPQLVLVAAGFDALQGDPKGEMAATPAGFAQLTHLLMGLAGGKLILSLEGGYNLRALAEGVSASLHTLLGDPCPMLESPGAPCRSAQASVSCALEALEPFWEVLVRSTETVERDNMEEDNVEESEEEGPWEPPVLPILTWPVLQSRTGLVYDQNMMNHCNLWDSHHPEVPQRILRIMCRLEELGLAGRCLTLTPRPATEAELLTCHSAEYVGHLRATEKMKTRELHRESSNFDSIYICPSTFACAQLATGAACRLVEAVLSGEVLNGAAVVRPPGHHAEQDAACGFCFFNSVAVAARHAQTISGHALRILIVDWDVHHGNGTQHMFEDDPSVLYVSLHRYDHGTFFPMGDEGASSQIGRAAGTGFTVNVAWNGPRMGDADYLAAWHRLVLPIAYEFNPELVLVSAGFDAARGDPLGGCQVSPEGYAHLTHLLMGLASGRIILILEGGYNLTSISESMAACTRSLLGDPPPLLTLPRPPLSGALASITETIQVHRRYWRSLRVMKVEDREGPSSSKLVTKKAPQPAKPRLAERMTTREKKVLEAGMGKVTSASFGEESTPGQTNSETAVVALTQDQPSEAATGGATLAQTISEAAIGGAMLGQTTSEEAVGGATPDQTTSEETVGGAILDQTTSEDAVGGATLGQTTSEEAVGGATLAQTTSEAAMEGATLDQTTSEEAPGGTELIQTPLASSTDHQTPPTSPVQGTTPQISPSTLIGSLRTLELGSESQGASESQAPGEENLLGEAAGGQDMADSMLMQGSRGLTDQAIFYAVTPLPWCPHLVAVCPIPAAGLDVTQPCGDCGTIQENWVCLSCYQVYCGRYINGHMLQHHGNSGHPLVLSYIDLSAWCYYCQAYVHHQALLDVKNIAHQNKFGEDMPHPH
Put plainly: Inhibition of HDAC6 in human HCT-116 cells assessed as upregulation of acetylated alpha-tubulin level incubated for 24 hrs by Western blotting analysis. The class given is cell-based. Particulars: dose 0.5-4 µM. A general note: A western blot detects proteins with antibodies after separation by electrophoresis.

The next data set deals with Histone deacetylase 1 (Homo sapiens, UniProt Q13547). Nature of the data set: Inhibition of recombinant human HDAC1 using Boc-Lys(Ac)-AMC as substrate preincubated for 1 hr followed by substrate addition and measured after 2 hrs by microplate reader assay.
Sequence of Histone deacetylase 1 (Q13547 whole entry): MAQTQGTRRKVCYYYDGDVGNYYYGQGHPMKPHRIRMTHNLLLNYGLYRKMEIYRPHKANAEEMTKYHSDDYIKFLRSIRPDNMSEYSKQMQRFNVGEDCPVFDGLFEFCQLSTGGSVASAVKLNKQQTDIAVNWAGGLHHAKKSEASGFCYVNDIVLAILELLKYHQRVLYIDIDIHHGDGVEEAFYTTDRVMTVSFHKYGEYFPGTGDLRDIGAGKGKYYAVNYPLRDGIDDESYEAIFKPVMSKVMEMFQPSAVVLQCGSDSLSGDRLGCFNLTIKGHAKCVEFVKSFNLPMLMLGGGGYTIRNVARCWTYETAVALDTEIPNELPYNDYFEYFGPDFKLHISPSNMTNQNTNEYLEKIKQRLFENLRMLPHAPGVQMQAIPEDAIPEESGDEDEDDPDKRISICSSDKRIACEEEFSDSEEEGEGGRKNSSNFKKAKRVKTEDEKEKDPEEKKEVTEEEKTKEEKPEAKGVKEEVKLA
Data set [2] is described as follows: Toxicity in mouse assessed as mortality at 5 mg/kg, ip administered every 2 days for 26 days. In kind it is organism-based. Particulars: in vivo, 624 h, time 26 day.
The target in data set [3] is Class 1 histone deacetylase (Homo sapiens) (UniProt Q13547+O15379+Q92769+Q9BY41). Nature of the data set: Inhibition of class 1 HDACs in human HCT-116 cells assessed as upregulation of acetylated alpha-H3 level at 1 uM incubated for 24 hrs by Western blotting analysis. In kind it is cell-based.
Sequence of Class 1 histone deacetylase (Homo sapiens) (O15379 whole entry, looked up): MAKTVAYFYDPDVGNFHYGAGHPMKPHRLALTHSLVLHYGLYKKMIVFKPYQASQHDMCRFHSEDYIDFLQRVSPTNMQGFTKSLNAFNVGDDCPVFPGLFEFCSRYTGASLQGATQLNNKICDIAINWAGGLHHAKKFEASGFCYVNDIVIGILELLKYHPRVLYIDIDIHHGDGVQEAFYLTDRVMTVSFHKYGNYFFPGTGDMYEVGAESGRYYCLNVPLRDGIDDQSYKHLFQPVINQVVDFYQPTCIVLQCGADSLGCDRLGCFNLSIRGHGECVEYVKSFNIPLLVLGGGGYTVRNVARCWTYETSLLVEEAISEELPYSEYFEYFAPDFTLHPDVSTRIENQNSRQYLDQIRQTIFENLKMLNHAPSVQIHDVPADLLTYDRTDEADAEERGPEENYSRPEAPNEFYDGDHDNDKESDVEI
Sequence of Class 1 histone deacetylase (Homo sapiens) (Q13547 whole entry, looked up): as the sequence (Q13547 whole entry) above
Sequence of Class 1 histone deacetylase (Homo sapiens) (Q92769 whole entry, looked up): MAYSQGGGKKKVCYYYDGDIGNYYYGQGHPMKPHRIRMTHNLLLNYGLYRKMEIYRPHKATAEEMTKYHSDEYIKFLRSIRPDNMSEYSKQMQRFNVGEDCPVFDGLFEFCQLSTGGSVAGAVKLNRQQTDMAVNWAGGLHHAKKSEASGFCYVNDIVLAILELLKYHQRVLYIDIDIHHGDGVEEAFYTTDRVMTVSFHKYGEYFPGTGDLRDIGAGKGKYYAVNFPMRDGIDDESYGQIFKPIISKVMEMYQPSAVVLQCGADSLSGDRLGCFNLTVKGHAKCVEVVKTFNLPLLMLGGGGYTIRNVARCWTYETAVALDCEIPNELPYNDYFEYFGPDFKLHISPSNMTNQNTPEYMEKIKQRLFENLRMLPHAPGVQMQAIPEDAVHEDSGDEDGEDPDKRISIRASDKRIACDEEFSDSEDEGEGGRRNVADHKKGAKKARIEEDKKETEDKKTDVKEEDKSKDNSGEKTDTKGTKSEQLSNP
Sequence of Class 1 histone deacetylase (Homo sapiens) (Q9BY41 whole entry, looked up): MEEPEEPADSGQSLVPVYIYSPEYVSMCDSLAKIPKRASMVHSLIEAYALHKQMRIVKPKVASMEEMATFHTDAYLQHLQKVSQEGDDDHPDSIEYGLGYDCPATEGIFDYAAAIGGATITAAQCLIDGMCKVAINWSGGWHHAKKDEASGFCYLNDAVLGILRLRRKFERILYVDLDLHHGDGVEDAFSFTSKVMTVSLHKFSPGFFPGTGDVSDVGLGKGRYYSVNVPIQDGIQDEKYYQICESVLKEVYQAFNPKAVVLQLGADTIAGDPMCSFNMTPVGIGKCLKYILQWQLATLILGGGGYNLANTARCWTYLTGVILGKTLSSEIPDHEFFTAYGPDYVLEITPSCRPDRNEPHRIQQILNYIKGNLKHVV
The target of data set [4] is T1, Protein deacetylase HDAC6 (Homo sapiens). Put plainly: Inhibition of HDAC6 in human HCT-116 cells assessed as upregulation of acetylated alpha-tubulin level at 1 uM incubated for 24 hrs by Western blotting analysis. In kind it is cell-based.
The subject of data set [5] is HCT-116. Put plainly: Induction of cell cycle arrest in human HCT-116 cells assessed as accumulation of cells at G2/M phase at 0.4 uM after 24 hrs by PI staining based flow cytometry analysis (reference value: 9.3%). The class given is functional.
For data set [6], the system named is HCT-116. Put plainly: Induction of cell cycle arrest in human HCT-116 cells assessed as accumulation of cells at S phase at 0.4 uM after 24 hrs by PI staining based flow cytometry analysis (reference value: 52.8%). The class given is functional. In general terms: In flow cytometry, cells or beads pass a laser one at a time.
In data set [7] the test system is HCT-116. Nature of the data set: Induction of cell cycle arrest in human HCT-116 cells assessed as accumulation of cells at G1 phase at 0.4 uM after 24 hrs by PI staining based flow cytometry analysis (reference value: 37.9%). In kind it is functional.
The test system of the next data set is EBC-1. Nature of the data set: Antiproliferative activity against human EBC-1 cells incubated for 48 hrs by MTT assay. The class given is functional, cell-based. Particulars: EBC-1, 48 h. (Tetrazolium dyes change colour on reduction, which living cells bring about.)
The next data set has as its system NCI-H1581. Put plainly: Antiproliferative activity against human NCI-H1581 cells incubated for 48 hrs by MTT assay. The class given is functional, cell-based. To be noted: NCI-H1581, 48 h.

In the case of `O=C(NCC[Se][Se]CCNC(=O)/C(Cc1ccc(O)c(Br)c1)=N/O)/C(Cc1ccc(O)c(Br)c1)=N/O`, the inhibition result in [1] is “Dose-Dependent Effect”. Moreover, at Histone deacetylase 1, the IC50 amounted to 170 nM. Further, the Activity entry in [2] is on record as “Toxic”.

As for `O=C(NCC[Se][Se]CCNC(=O)/C(Cc1ccsc1)=N/O)/C(Cc1ccsc1)=N/O`, the inhibition result in data set [3] and in [4] was “Active” each time. For the same compound, the Activity in the data set on HCT-116 [5] amounted to 52.59%; in the data set with HCT-116 [6], 39.56%; in the data set with HCT-116 [7], 7.85%. Also, the inhibition entry in data set [1] was “Dose-Dependent Effect”. In addition, the IC50 at Histone deacetylase 1 was 770 nM; with EBC-1 it was 640 nM; in the data set on NCI-H1581 it was 260 nM.
